This passage reports Activity, IC50 and viability results from ChEMBL document CHEMBL5352401, “Novel cudraisoflavone J derivatives as potent neuroprotective agents for the treatment of Parkinson's disease via the activation of Nrf2/HO-1 signaling” (Eur J Med Chem, 2022).

For experiment [1], the system named is PC-12. In words: Cytotoxicity in rat PC-12 cells assessed as cell viability measured at 10 to 30 uM for 24 hrs by MTT assay. Format: functional, cell-based. The settings on record: dose 10-30 µM. (In general: Formazan colour is commonly taken as a measure of viable cells.)
Experiment [2] has as its system PC-12. Briefly: Neuroprotective activity against 6-OHDA-induced cytotoxicity in rat PC-12 cells at 10 to 30 uM for 4 hrs followed by exposure to 6-OHDA measured after 24 hrs by MTT assay. Format: functional, cell-based. The note with it: dose 10-30 µM, time 28.0 hrs.
Experiment [3] relates to PC-12. Briefly: Cytotoxicity in rat PC-12 cells assessed as cell viability measured upto 30 uM for 24 hrs by MTT assay relative to control. Format: functional. The note with it: up to 30 µM.
The subject of experiment [4] is PC-12. Briefly: Neuroprotective activity against 6-OHDA-induced cytotoxicity in rat PC-12 cells at 0.1 uM for 4 hrs followed by exposure to 6-OHDA measured after 24 hrs by MTT assay. The note with it: time 28.0 hrs. Format: functional, cell-based.
A further experiment has as its target T1, Monoamine oxidase (Mus musculus, UniProt Q8BW75+Q64133).
T1 sequence (Q8BW75 whole entry): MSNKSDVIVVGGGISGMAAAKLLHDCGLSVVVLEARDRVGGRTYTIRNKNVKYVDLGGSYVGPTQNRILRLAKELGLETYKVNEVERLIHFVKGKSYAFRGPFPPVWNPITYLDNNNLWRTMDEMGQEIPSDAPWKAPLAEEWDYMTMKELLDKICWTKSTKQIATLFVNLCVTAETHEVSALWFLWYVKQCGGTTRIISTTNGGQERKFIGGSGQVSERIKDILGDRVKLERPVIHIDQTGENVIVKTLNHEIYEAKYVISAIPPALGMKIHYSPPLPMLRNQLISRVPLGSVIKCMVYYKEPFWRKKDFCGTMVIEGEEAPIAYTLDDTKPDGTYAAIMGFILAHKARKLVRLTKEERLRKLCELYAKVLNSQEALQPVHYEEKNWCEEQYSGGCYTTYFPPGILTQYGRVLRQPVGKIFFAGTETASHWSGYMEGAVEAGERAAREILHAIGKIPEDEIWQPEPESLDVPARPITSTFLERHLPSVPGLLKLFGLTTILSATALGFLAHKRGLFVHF
T1 sequence (Q64133 whole entry): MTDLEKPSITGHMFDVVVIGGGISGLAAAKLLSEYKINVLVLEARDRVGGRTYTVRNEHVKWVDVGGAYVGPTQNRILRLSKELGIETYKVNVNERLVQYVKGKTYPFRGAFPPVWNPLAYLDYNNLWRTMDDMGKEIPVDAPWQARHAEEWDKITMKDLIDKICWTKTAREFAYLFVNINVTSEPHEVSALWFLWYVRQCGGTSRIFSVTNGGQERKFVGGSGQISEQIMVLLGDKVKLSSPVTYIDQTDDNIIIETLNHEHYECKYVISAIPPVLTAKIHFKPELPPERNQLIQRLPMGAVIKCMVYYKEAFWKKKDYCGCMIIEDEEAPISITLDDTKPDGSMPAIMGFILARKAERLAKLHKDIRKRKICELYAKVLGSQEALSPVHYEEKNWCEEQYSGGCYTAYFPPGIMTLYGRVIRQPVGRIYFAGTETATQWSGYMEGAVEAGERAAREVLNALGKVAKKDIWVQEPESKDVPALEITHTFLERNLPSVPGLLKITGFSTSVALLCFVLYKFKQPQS
Briefly: Inhibition of mouse brain mitochondrial MAO using kynuramine as substrate incubated for 15 mins measured fluorometric analysis. Format: mitochondria, Mitochondria.

Experiment [5] has as its system PC-12. In words: Cytotoxicity in rat PC-12 cells assessed as cell viability measured at 30 uM for 24 hrs by MTT assay. Format: functional, cell-based.
Experiment [6] in a line: Neurotoxicity in rotenone induced at rat PC-12 cells assessed as cell viability pretreated with compound for 4 hrs followed by rotenone addition measured after 24 hrs by MTT assay. Format: toxicity, cell-based.
Experiment [7] deals with PC-12. Briefly: Cytotoxicity in rat PC-12 cells assessed as cell viability measured at 30 uM for 24 hrs by MTT assay relative to control. Format: functional. The settings on record: read-out: Activity.
The subject of experiment [8] is PC-12. Briefly: Cytotoxicity in rat PC-12 cells assessed as cell viability incubated for 24 hrs by MTT assay. Format: functional, cell-based. The note with it: PC-12, 24 h.
For experiment [9], the system named is PC-12. In words: Cytotoxicity in rat PC-12 cells assessed as cell viability measured upto 30 uM for 24 hrs by MTT assay. Format: functional, cell-based.
A short description of experiment [10]: Neurotoxicity in rotenone induced at rat PC-12 cells assessed as cell viability at 30 uM pretreated for 4 hrs followed by rotenone addition measured after 24 hrs by MTT assay (reference value: 53.4 +/- 2.6%). Format: toxicity, cell-based. The settings on record: time 28 hrs, read-out: Activity.
Experiment [11] deals with PC-12. In words: Neuroprotective activity against 6-OHDA-induced cytotoxicity in rat PC-12 cells for 4 hrs followed by exposure to 6-OHDA measured after 24 hrs by MTT assay. Format: functional, cell-based. The settings on record: dose 0.1-30 µM, time 28.0 hrs.

Active and inactive are the calls of the source. No cut-off for these calls is given here.

Regarding `CCOc1ccc(-c2coc3cc4c(c(O)c3c2=O)C=CC(C)(C)O4)cc1`, in the experiment with PC-12 [1], the result was inactive. In addition, the result in the experiment on PC-12 [2] and in the experiment on PC-12 [4] was Active. In the experiment on PC-12 [3], the Activity was roughly 80%.

Usually IC50 stands for the midpoint of a concentration-inhibition curve. `CC1(C)C=Cc2c(cc3occ(-c4ccc(O)cc4)c(=O)c3c2O)O1` [ALPINUMISOFLAVONE] gave an IC50 against Monoamine oxidase of 25.8 µM. Further, the result with PC-12 [5] was Active.

`COc1cccc(-c2coc3cc(O)c4c(c3c2=O)OC(C)(C)C(O)C4)c1` (stereo not drawn): the IC50 in [6] is 5.5 µM; in the experiment with PC-12 [8], 8 µM. The values for the viability at 30 µM (in the experiment on PC-12 [7]; in [10]) were 86% and 80.3%, respectively. Also, the result in the experiment with PC-12 [9] was inactive. For the same molecule, in the experiment on PC-12 [2], the outcome was Active. The Activity result in the experiment with PC-12 [11] is “Dose-Dependent Effect”.
